Converted amounts (≈) assume the structure as drawn. The source made the active and inactive calls. The calls are words filed in the database; no cut-off is given here.
What was measured:
[1] = molecular target: cAMP and cAMP-inhibited cGMP 3',5'-cyclic phosphodiesterase 10A (Homo sapiens, UniProt Q9Y233); assay: Inhibition of PDE10A2 (449 to 770 residues) (unknown origin) expressed in Escherichia coli BL21 using [3H-GMP] or [3H-AMP] as substrate incubated for 15 mins by liquid scintillation counting method
[2] = molecular target: High affinity 3',5'-cyclic-AMP phosphodiesterase 7A (Homo sapiens, UniProt Q13946); assay: Inhibition of PDE7A1 (130 to 482 residues) (unknown origin) expressed in Escherichia coli BL21 using [3H-GMP] or [3H-AMP] as substrate incubated for 15 mins by liquid scintillation counting method
[3] = molecular target: cGMP-specific 3',5'-cyclic phosphodiesterase (Homo sapiens, UniProt O76074); assay: Inhibition of PDE5A1 (535 to 860 residues) (unknown origin) expressed in Escherichia coli BL21 using [3H-GMP] or [3H-AMP] as substrate incubated for 15 mins by liquid scintillation counting method
[4] = Stability in human liver microsomes assessed as half life measure upto 45 mins in presence of NADPH by LC-MS analysis; type: ADME, Microsome
[5] = molecular target: 3',5'-cyclic-AMP phosphodiesterase 4D (Homo sapiens, UniProt Q08499); assay: Inhibition of PDE4D2 (86 to 413 residues) (unknown origin) expressed in Escherichia coli BL21 using [3H-GMP] or [3H-AMP] as substrate incubated for 15 mins by liquid scintillation counting method
[6] = molecular target: 3',5'-cyclic-AMP phosphodiesterase 4B (Homo sapiens, UniProt Q07343); assay: Inhibition of PDE4B2 (152 to 487 residues) (unknown origin) expressed in Escherichia coli BL21 using [3H-GMP] or [3H-AMP] as substrate incubated for 15 mins by liquid scintillation counting method
[7] = molecular target: Dual specificity calcium/calmodulin-dependent 3',5'-cyclic nucleotide phosphodiesterase 1B (Homo sapiens, UniProt Q01064); assay: Inhibition of PDE1B (10 to 487 residues) (unknown origin) expressed in Escherichia coli BL21 using [3H-GMP] or [3H-AMP] as substrate incubated for 15 mins by liquid scintillation counting method
[8] = molecular target: cGMP-dependent 3',5'-cyclic phosphodiesterase (Homo sapiens, UniProt O00408); assay: Inhibition of PDE2A (580 to 919 residues) (unknown origin) expressed in Escherichia coli BL21 using [3H-GMP] or [3H-AMP] as substrate incubated for 15 mins by liquid scintillation counting method
[9] = molecular target: cGMP-inhibited 3',5'-cyclic phosphodiesterase 3A (Homo sapiens, UniProt Q14432); assay: Inhibition of PDE3A (679 to 1087 residues) (unknown origin) expressed in Escherichia coli BL21 using [3H-GMP] or [3H-AMP] as substrate incubated for 15 mins by liquid scintillation counting method
[10] = molecular target: High affinity cAMP-specific and IBMX-insensitive 3',5'-cyclic phosphodiesterase 8A (Homo sapiens, UniProt O60658); assay: Inhibition of PDE8A1 (480 to 820 residues) (unknown origin) expressed in Escherichia coli BL21 using [3H-GMP] or [3H-AMP] as substrate incubated for 15 mins by liquid scintillation counting method
[11] = Aqueous solubility of compound by HPLC analysis; type: physicochemical; conditions: buffer
[12] = Stability in rat liver microsomes assessed as half life measure upto 45 mins in presence of NADPH by LC-MS analysis; type: ADME, Microsome
[13] = Stability in mouse liver microsomes assessed as half life measure upto 45 mins in presence of NADPH by LC-MS analysis; type: ADME, Microsome
[14] = AUC (0 to infinity) in ICR mouse at 10 mg/kg, iv measured upto 24 hrs by LC-MS/MS analysis; type: ADME, organism-based; design: time < 24 hrs, dose 10 mg/kg, route iv; conditions: in vivo
[15] = AUC (0 to infinity) in ICR mouse at 30 mg/kg, po measured upto 24 hrs by LC-MS/MS analysis; type: ADME, organism-based; design: dose 30 mg/kg, time < 24 hrs, route po; conditions: in vivo
[16] = Oral bioavailability in ICR mouse at 30 mg/kg measured upto 24 hrs by LC-MS/MS analysis; type: ADME, organism-based; conditions: in vivo
Mus musculus [17] = assay: Anti-psoriatic activity in IMQ-induced BALB/c psoriasis mouse model assessed as reduction in scales score at 10 mg/kg, po for 7 days; type: functional, organism-based; conditions: time 7.0 day
Mus musculus [18] = assay: Anti-psoriatic activity in IMQ-induced BALB/c psoriasis mouse model assessed as reduction in total clinical score at 10 mg/kg, po for 7 days; type: functional, organism-based; conditions: time 7.0 day
Mus musculus [19] = assay: Anti-psoriatic activity in IMQ-induced BALB/c psoriasis mouse model assessed as reduction IMQ- induced immune response by measuring change in spleen weight at 10 mg/kg, po for 7 days; type: functional, organism-based; conditions: time 7.0 day
Mus musculus [20] = organism: Mus musculus; assay: Anti-psoriatic activity in IMQ-induced BALB/c psoriasis mouse model assessed as reduction in scales score at 62.5 mg as 2% ointment, TOP daily and measured upto 7 days; type: functional, organism-based; conditions: time <= 7.0 day, DDE = dose-dependent effect
Mus musculus [21] = organism: Mus musculus; assay: Anti-psoriatic activity in IMQ-induced BALB/c psoriasis mouse model assessed as reduction in thickness score at 62.5 mg as 2% ointment, TOP daily and measured upto 7 days; type: functional, organism-based; conditions: time <= 7.0 day, DDE = dose-dependent effect
[22] = Toxicity in IMQ-induced BALB/c psoriasis mouse model assessed as body weight loss at 62.5 mg as 2% ointment, TOP daily and measured upto 7 days; conditions: in vivo, topical_or_ocular, 168 h, time < 7 day
Mus musculus [23] = organism: Mus musculus; assay: Anti-psoriatic activity in IMQ-induced BALB/c psoriasis mouse model assessed as reduction IMQ- induced immune response by measuring spleen weight loss at 62.5 mg as 2% ointment, TOP daily and measured upto 7 days; type: functional, organism-based; conditions: time <= 7.0 day
[24] = Toxicity in BALB/c mouse assessed as skin lesions at 62.5 mg as 2% ointment, TOP daily and measured upto 7 days; conditions: in vivo, topical_or_ocular, 168 h, time < 7 day
[25] = Toxicity in BALB/c mouse assessed as body weight loss at 62.5 mg as 2% ointment, TOP daily and measured upto 7 days; conditions: in vivo, topical_or_ocular, 168 h, time < 7 day
Mus musculus [26] = organism: Mus musculus; assay: Anti-psoriatic activity in IMQ-induced BALB/c psoriasis mouse model assessed as change in skin thickness at 62.5 mg as 2% ointment, TOP daily for 7 days by hematoxylin and eosin staining based confocal laser scanning microscopy; type: functional, organism-based; conditions: time 7.0 day
Mus musculus [27] = organism: Mus musculus; assay: Anti-psoriatic activity in IMQ-induced BALB/c psoriasis mouse model assessed as reduction in epidermal cell proliferation at 62.5 mg as 2% ointment, TOP daily for 7 days by Ki67+ expression based immunohistochemistry analysis; type: functional, organism-based; conditions: time 7.0 day
Mus musculus [28] = organism: Mus musculus; assay: Anti-psoriatic activity in IMQ-induced BALB/c psoriasis mouse model assessed as reduction in erythema score at 62.5 mg as 4% ointment, TOP daily and measured upto 7 days; type: functional, organism-based; conditions: time <= 7.0 day, DDE = dose-dependent effect
Mus musculus [29] = organism: Mus musculus; assay: Anti-psoriatic activity in IMQ-induced BALB/c psoriasis mouse model assessed as reduction in scales score at 62.5 mg as 4% ointment, TOP daily and measured upto 7 days; type: functional, organism-based; conditions: time <= 7.0 day, DDE = dose-dependent effect
Mus musculus [30] = organism: Mus musculus; assay: Anti-psoriatic activity in IMQ-induced BALB/c psoriasis mouse model assessed as reduction in thickness score at 62.5 mg as 4% ointment, TOP daily and measured upto 7 days; type: functional, organism-based; conditions: time <= 7.0 day, DDE = dose-dependent effect
Mus musculus [31] = organism: Mus musculus; assay: Anti-psoriatic activity in IMQ-induced BALB/c psoriasis mouse model assessed as reduction in dermal cell proliferation at 62.5 mg as 4% ointment, TOP daily for 7 days by Ki67+ expression based immunohistochemistry analysis; type: functional, organism-based; conditions: time 7.0 day

Chain of High affinity cAMP-specific and IBMX-insensitive 3',5'-cyclic phosphodiesterase 8A (O60658 whole entry, the tested form may be a part): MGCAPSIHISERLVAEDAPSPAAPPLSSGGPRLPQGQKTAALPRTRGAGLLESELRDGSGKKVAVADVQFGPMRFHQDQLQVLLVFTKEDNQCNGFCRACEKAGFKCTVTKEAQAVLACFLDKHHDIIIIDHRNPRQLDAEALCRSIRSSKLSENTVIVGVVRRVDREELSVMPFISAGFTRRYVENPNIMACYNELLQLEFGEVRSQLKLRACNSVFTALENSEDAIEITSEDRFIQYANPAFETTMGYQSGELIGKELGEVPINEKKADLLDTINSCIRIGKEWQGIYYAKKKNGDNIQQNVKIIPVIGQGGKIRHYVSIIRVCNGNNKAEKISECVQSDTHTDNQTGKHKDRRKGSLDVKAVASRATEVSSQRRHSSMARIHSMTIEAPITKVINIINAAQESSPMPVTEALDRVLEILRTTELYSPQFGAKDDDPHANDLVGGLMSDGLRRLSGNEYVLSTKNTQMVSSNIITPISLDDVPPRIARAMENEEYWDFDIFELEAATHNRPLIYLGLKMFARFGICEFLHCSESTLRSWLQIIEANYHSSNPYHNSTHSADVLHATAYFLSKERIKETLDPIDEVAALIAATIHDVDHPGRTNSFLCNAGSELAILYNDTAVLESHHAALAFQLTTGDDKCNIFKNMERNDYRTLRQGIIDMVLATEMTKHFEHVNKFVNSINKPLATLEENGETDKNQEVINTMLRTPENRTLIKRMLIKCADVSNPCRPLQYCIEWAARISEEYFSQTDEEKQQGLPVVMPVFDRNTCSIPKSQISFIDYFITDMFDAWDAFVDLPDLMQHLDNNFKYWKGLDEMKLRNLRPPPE
Chain of 3',5'-cyclic-AMP phosphodiesterase 4D (Q08499 whole entry, the tested form may be a part): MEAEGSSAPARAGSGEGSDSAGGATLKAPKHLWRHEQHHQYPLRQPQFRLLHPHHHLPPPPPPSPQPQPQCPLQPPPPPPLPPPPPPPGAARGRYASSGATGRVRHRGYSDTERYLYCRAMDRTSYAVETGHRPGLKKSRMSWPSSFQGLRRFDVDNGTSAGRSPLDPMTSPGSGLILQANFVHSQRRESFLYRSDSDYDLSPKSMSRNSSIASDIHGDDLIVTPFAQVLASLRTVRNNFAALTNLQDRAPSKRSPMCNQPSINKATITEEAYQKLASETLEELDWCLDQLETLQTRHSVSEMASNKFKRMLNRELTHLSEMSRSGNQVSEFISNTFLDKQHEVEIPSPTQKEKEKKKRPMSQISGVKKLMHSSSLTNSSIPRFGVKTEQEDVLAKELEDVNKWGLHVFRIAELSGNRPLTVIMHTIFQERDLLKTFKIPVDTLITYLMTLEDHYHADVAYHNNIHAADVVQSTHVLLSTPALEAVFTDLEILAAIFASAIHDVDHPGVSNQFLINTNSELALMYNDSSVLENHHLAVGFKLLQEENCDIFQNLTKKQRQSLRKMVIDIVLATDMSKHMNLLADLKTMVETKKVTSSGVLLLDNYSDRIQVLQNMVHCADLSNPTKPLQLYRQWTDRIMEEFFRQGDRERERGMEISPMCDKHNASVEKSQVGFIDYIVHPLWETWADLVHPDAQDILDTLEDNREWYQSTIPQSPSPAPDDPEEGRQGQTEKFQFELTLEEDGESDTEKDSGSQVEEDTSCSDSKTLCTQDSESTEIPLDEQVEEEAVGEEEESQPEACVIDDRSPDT
Chain of High affinity 3',5'-cyclic-AMP phosphodiesterase 7A (Q13946 whole entry, the tested form may be a part): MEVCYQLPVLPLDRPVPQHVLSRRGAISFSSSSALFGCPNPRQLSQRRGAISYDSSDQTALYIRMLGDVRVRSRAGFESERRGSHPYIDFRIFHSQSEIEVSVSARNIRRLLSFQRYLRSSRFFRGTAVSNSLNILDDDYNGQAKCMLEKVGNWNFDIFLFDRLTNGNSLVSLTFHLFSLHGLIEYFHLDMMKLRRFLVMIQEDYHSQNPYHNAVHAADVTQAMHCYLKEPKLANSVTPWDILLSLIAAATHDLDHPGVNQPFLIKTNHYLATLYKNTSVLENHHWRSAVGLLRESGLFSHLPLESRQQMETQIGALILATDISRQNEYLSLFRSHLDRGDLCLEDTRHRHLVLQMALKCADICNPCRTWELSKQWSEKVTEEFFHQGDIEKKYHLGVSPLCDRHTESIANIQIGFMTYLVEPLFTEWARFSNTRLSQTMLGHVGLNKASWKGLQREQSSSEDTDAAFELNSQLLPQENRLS
Chain of 3',5'-cyclic-AMP phosphodiesterase 4B (Q07343 whole entry, the tested form may be a part): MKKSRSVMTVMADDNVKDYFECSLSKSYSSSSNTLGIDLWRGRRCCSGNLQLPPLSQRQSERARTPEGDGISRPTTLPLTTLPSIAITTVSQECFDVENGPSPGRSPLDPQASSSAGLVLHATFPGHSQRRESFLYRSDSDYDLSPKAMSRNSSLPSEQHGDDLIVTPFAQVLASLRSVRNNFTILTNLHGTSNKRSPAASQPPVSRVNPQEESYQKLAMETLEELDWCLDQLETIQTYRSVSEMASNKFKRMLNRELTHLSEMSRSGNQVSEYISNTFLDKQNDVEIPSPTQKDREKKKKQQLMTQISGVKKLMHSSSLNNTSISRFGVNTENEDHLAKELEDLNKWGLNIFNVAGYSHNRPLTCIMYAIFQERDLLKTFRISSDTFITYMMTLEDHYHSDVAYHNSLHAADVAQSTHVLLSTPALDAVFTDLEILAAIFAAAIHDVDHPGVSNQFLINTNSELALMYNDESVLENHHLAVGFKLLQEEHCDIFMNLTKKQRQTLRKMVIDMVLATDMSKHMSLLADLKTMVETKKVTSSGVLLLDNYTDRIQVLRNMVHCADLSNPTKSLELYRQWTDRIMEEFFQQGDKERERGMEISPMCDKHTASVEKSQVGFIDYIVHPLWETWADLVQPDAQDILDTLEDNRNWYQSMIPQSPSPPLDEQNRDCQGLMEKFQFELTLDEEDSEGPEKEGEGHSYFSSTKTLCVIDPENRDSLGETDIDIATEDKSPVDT
Chain of cGMP-dependent 3',5'-cyclic phosphodiesterase (O00408 whole entry, the tested form may be a part): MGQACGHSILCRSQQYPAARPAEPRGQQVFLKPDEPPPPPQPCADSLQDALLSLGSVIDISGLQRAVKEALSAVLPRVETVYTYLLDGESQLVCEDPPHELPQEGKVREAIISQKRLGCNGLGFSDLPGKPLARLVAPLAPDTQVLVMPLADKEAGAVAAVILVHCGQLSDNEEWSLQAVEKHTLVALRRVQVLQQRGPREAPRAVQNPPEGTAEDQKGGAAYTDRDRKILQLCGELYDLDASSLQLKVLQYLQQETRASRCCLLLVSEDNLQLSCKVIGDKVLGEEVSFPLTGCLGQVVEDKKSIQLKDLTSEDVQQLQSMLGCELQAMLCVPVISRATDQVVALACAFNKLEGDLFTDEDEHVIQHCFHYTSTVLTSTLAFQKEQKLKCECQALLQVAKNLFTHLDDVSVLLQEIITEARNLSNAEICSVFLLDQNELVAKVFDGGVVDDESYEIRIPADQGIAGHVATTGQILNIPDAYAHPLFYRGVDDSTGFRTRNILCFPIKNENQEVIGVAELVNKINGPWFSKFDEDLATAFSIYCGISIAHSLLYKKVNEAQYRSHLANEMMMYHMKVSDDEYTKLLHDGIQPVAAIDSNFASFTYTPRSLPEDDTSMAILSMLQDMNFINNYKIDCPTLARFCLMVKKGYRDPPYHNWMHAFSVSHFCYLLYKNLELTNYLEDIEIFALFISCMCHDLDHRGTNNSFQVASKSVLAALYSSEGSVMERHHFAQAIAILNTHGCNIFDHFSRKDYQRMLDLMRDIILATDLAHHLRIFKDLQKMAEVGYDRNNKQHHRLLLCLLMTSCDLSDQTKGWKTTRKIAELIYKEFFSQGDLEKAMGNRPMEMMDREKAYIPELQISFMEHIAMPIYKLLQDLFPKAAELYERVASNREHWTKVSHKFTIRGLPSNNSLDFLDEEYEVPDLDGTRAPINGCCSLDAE
Chain of Dual specificity calcium/calmodulin-dependent 3',5'-cyclic nucleotide phosphodiesterase 1B (Q01064 whole entry, the tested form may be a part): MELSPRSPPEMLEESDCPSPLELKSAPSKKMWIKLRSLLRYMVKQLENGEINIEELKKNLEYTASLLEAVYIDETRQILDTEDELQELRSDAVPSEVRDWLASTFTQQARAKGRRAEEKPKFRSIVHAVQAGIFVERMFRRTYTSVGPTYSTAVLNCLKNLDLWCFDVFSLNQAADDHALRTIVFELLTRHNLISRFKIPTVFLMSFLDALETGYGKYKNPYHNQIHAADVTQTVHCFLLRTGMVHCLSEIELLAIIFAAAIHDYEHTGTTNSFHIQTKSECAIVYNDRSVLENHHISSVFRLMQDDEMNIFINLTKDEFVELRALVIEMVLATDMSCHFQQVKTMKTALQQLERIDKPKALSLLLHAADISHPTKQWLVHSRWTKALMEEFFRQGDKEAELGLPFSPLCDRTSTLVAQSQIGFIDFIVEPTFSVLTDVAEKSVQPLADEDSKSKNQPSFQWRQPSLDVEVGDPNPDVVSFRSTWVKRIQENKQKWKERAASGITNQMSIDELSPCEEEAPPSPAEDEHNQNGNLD

Compound: CCn1c(=O)c2c(c3ccc(C)nc31)O[C@@](C)(CCO)C[C@H]2C=C(C)C
- IC50 [1]: 1760 nM
- IC50 [2]: 2130 nM
- IC50 [3]: 4250 nM
- half-life [4]: 0.9 min
- IC50 [5]: 3.1 nM
- IC50 [6]: 3.2 nM
- IC50 [7]: > 10000 nM
- IC50 [8]: 1510 nM
- IC50 [9]: > 10000 nM
- IC50 [10]: 820 nM
- solubility [11]: 10 µg/mL (≈ 28.1 µM)
- half-life [12]: 2.9 min
- half-life [13]: 1.3 min
- AUC(0-inf) [14]: 2620 ng·h/mL
- AUC(0-inf) [15]: 1200 ng·h/mL
- bioavailability [16]: 14.4%
- Activity (Mus musculus [17]): Active
- Activity (Mus musculus [18]): Active
- Activity (Mus musculus [19]): Active
- Activity (Mus musculus [20]): Dde
- Activity (Mus musculus [21]): Dde
- Activity [22]: Non-Toxic
- Activity (Mus musculus [23]): Active
- Activity [24]: Non-Toxic
- Activity [25]: Non-Toxic
- Activity (Mus musculus [26]): Active
- Activity (Mus musculus [27]): Active
- Activity (Mus musculus [28]): Dde
- Activity (Mus musculus [29]): Dde
- Activity (Mus musculus [30]): Dde
- Activity (Mus musculus [31]): Active

— ChEMBL document CHEMBL5154753, “Discovery and Structural Optimization of Toddacoumalone Derivatives as Novel PDE4 Inhibitors for the Topical Treatment of Psoriasis” (J Med Chem, 2022)
